From patent US20230058623A1, “NOVEL HETEROARYL-TRIAZOLE COMPOUNDS AS PESTICIDES” (Bayer Aktiengesellschaft, priority 2019, published 2023)

Key:
Assay type in all cases: in vivo
[1] = test system: Rhipicephalus (Boophilus) microplus larvae (strain Parkhurst, resistant against synthetic pyrethroids); assay: Rhipicephalus (Boophilus) microplus in-vitro contact test, larval cattle tick; details: after 48 hours, read-out: activity (efficacy: larvae dead or moribund); for pest or weed control at 1 µg/cm2, 100 g/ha: application rate 1 μg/cm^2 (=100 g/ha); for pest or weed control at 5 µg/cm2, 500 g/ha: application rate 5 μg/cm^2 (=500 g/ha)
Outline: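 Acetone solutions were coated onto glass tube walls, giving 5 μg/cm^2 at 900 ppm. Once dry, 20–50 pyrethroid-resistant Parkhurst larvae were added per tube and held 48 h at 27 °C and 85% RH. Efficacy was scored by negative geotaxis as the percentage of dead or moribund larvae.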

[2] = test system: adult engorged female ticks (Rhipicephalus microplus); assay: Rhipicephalus (Boophilus) microplus injection test; details: 168 h, application rate 4 μg/tick, egg deposition after 7 days, read-out: activity (efficacy: infertile eggs)
Outline: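 Five adult engorged female ticks injected into the abdomen with 1 μL compound solution in DMSO, then held in a climate chamber. Fertile egg deposition assessed after 7 days, unclear eggs kept until hatching (about 42 days); efficacy 100% = all eggs infertile, 0% = all fertile.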

[3] = test system: adult brown dog ticks (Rhipicephalus sanguineus); assay: Rhipicephalus sanguineus in-vitro contact test, adult brown dog ticks; details: application rate 5 μg/cm^2 (=500 g/ha), after 48 hours, read-out: activity (efficacy: ticks dead or moribund)
Outline: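 Acetone solution (900 ppm giving 5 μg/cm²) coated on inner walls of glass tubes; after drying, 5-10 adult ticks added and held at room temperature 48 h. Ticks then placed on 45-50 °C plate ≤5 min; those unable to climb away scored dead/moribund, efficacy as % affected.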

[4] = test system: larvae of the banded cucumber beetle (Diabrotica balteata); assay: Diabrotica balteata spray test; details: 168 h, after 7 days, wheat seeds, read-out: activity (efficacy: seedlings grown); for pest or weed control at 32 µg/disc, 100 g/ha: application rate 100 g/ha (=32 μg/well)
Outline: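 Wheat seeds germinated 1 day on agar were sprayed with compound diluted in water with 1000 ppm emulsifier, then infested with 10-20 Diabrotica balteata larvae. Efficacy in % scored after 7 days: 100% = seedlings grown as untreated, uninfected control; 0% = no seedlings grown.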

[5] = test system: green peach aphid (Myzus persicae); assay: Myzus persicae oral test; details: 120 h, read-out: activity (mortality)
Outline: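 Compound was dissolved at 1 part by weight in 100 parts acetone, then diluted with water to test concentration and combined with IPL41 insect medium (33%+15% sugar). A mixed aphid population fed on this through a parafilm seal, and mortality (%) was scored after 5 days.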

[6] = test system: larvae of the southern green stink bug (Nezara viridula); assay: Nezara viridula spray test; details: 96 h, after 4 days, barley plants; for mortality at 100 g/ha: application rate 100 g/ha; for mortality at 500 g/ha: application rate 500 g/ha, read-out: activity (mortality)
Outline: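 Barley plants sprayed with the active compound in emulsifier-containing water, then infested with stink bug larvae. Mortality scored in % after 4 days, with 100% meaning all insects killed.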

[7] = test system: fall armyworm larvae (Spodoptera frugiperda); assay: Spodoptera frugiperda spray test; details: 168 h, application rate 100 g/ha, after 7 days, maize leaf sections
Outline: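 Maize leaf sections sprayed with compound diluted in water with 1000 ppm emulsifier, then infested with larvae once dry. Mortality (%) scored after 7 days; 100% = all caterpillars killed.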

[8] = test system: adult unfed cat fleas (Ctenocephalides felis); assay: Ctenocephalides felis oral test; details: 48 h, read-out: activity (mortality)
Outline: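 About 20 adult unfed cat fleas fed through parafilm on citrated cattle blood containing compound (from a DMSO concentrate). Blood held at 37° C, fleas at room temperature. Mortality in % scored after 2 days.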

Compound	pest or weed control at 1 µg/cm2, 100 g/ha [1]	pest or weed control at 5 µg/cm2, 500 g/ha [1]	pest or weed control at 0.004 mg [2]	pest or weed control at 5 µg/cm2, 500 g/ha [3]	pest or weed control at 32 µg/disc, 100 g/ha [4]	mortality at 4 ppm [5]	mortality at 100 g/ha [6]	mortality at 100 g/ha [7]	mortality at 100 ppm [8]	pest or weed control at 160 µg/disc, 500 g/ha ([4]; application rate 500 g/ha (=160 μg/well))	mortality at 500 g/ha [6]
C[C@H](NC(=O)c1cc(C(F)(F)F)cc(C(F)(F)F)c1)c1ncnn1-c1ccc(C(=O)N2CCCC2)cn1 [Example I-11]	100%	100%	100%	100%	80%	100%	100%	100%	–	–	–
C[C@H](NC(=O)c1cc(Cl)cc(C(F)(F)F)c1)c1ncnn1-c1ccc(C(=O)N2CCS(=O)(=O)CC2)cn1 [Example I-35]	100%	100%	100%	100%	100%	100%	100%	–	100%	–	–
C[C@@H]1CN(C(=O)c2ccc(-n3ncnc3[C@H](C)NC(=O)c3cc(OC(F)(F)F)cc(C4CC4)c3)nc2)C[C@H](C)O1 [Example I-114]	100%	100%	100%	100%	100%	100%	–	100%	100%	–	–
C[C@H](NC(=O)c1cc(C(F)(F)F)cc(C(F)(F)F)c1)c1ncnn1-c1ccc(C(=O)N2CCOCC2)cn1 [Example I-2]	100%	100%	100%	100%	100%	100%	100%	100%	–	100%	100%
C[C@@H]1CN(C(=O)c2ccc(-n3ncnc3[C@H](C)NC(=O)c3cc(C(F)(F)F)cc(C(F)(F)F)c3)nc2)CCO1 [Example I-69]	100%	100%	–	100%	100%	100%	–	100%	–	–	–
C[C@@H]1CN(C(=O)c2ccc(-n3ncnc3[C@H](C)NC(=O)c3cc(Cl)cc(C(F)(F)F)c3)nc2)C[C@H](C)O1 [Example I-31]	100%	100%	100%	100%	100%	100%	90%	100%	100%	–	–
Cc1nc([C@H](C)NC(=O)c2cc(C(F)(F)F)cc(C(F)(F)F)c2)n(-c2ncc(C(=O)N3CCOCC3)s2)n1 [Example I-4]	100%	100%	100%	100%	100%	100%	–	100%	100%	–	–
COC1CN(C(=O)c2ccc(-n3ncnc3[C@H](C)NC(=O)c3cc(C(F)(F)F)cc(C(F)(F)F)c3)nc2)C1 [Example I-15]	100%	100%	100%	100%	80%	100%	–	100%	100%	–	–
C[C@@H]1CN(C(=O)c2ccc(-n3ncnc3[C@H](C)NC(=O)c3cc(C(F)(F)F)cc(C(F)(F)F)c3)nc2)C[C@H](C)O1 [Example I-50]	100%	100%	100%	100%	100%	100%	100%	100%	100%	–	–
CC1CN(C(=O)c2ccc(-n3ncnc3[C@H](C)NC(=O)c3cc(C(F)(F)F)cc(C(F)(F)F)c3)nc2)CC(C)O1 (stereo partly drawn) [Example I-5]	100%	100%	100%	100%	–	100%	–	100%	100%	–	–
C[C@H](NC(=O)c1cc(Cl)cc(C(F)(F)F)c1)c1ncnn1-c1ccc(C(=O)N2CCSCC2)cn1 [Example I-36]	100%	100%	100%	100%	80%	100%	100%	–	100%	–	–
COC1CCCN(C(=O)c2ccc(-n3ncnc3[C@H](C)NC(=O)c3cc(C(F)(F)F)cc(C(F)(F)F)c3)nc2)C1 (stereo partly drawn) [Example I-8]	100%	100%	100%	100%	–	100%	90%	100%	100%	–	–
Cc1nc([C@H](C)NC(=O)c2cc(C(F)(F)F)cc(C(F)(F)F)c2)n(-c2ccc(C(=O)N3CCOCC3)cn2)n1 [Example I-9, N-[(1S)-1-{3-methyl-1-[5-(morpholin-4-ylcarbonyl)pyridin-2-yl]-1H-1,2,4-triazol-5-yl}ethyl]-3,5-bis(trifluoromethyl)benzamide]	100%	100%	100%	100%	100%	100%	100%	100%	–	–	–
Cc1nc([C@H](C)NC(=O)c2cc(C(F)(F)F)cc(C(F)(F)F)c2)n(-c2ccc(C(=O)N3CCS(=O)(=O)CC3)cn2)n1 [Example I-76]	100%	100%	–	100%	–	100%	–	100%	–	–	100%
C[C@H](NC(=O)c1cc(C(F)(F)F)cc(C(F)(F)F)c1)c1ncnn1-c1ccc(C(=O)N2CCS(=O)(=O)CC2)cn1 [Example I-75]	100%	100%	–	100%	100%	100%	–	100%	–	–	100%
C[C@H](NC(=O)c1cc(C(F)(F)F)cc(C(F)(F)F)c1)c1ncnn1-c1ccc(C(=O)N2C[C@H](C)O[C@@H](C)C2)cn1 [Example I-94]	100%	100%	100%	100%	100%	–	100%	100%	100%	–	–
